Measured values from US10993983B2, “Cyclic peptide epitopes and small-molecule mimics for inducing autophagy” (TRUSTEES OF TUFTS COLLEGE, priority 2016, dated 2021).
Marks after values point to notes of the source that are not given here. Where no end group is shown, it is not given here. [ ]: non-standard residue; d: D form.

Assays:
p62 = p62 degradation assay (p62/actin immunoblot);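 for Activity (μM) 10, p62/actin assay activity: HeLa cells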;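 for Activity (μM) 100, p62/actin assay activity: HeLa cells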;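 for Activity (μM) 20, p62/actin assay activity: HeLa cells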;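 for Activity (μM) 30, p62/actin assay activity: HeLa cells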;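 for Activity (μM) 50, p62/actin assay activity: HeLa cells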; assay type: cell-based; set-up: key: −: activity not reported; 0: decreased vs. WT; +: similar to WT; ++: modest increase vs. WT; +++: significant increase vs. WT; settings: for Activity (μM) 50, p62/actin assay activity: 50 μM; for Activity (μM) 100, p62/actin assay activity: 100 μM; for Activity (μM) 10, p62/actin assay activity: 10 μM; for Activity (μM) 20, p62/actin assay activity: 20 μM; for Activity (μM) 30, p62/actin assay activity: 30 μM
Experimental: (§1) Cells were treated with peptide in OPTI-MEM (Thermo Scientific) acidified with 0.15% (v/v) 6N HCl for 3 hour. Cells were rinsed with Dulbecco's phosphate buffered saline (PBS) and lysed in lysis buffer (20 mM HEPES, 150 mM NaCl, 1 mM EDTA, 1% Triton X-100, protease inhibitor cocktail (Roche) on ice for 1 hour. Cell lysates were centrifuged at 16,000 g for 10 min at 4° C. and analyzed by SDS-PAGE and transferred to PVDF membranes. The membranes were blocked 5% non-fat dry milk (NFDM) in PBST (PBS+0.05% Tween-20) for 1 hour, then incubated overnight at 4° C. with primary antibody in 5% NFDM in PBST. The blots were washed with PBST and incubated with HRP-conjugated secondary antibodies diluted in 5% NFDM in PBST for 1 hour at room temperature. Membranes were washed with PBST and visualized with SuperSignal West Pico Chemiluminescent Substrate (Thermo Scientific). Semi-quantitative results were obtained by noting the lowest concentration at which both p62 degradation and LC3-I to LC3-II conversion were observed.
(§2) Compounds 1-10 were evaluated using the assays described in Examples 4 and 5. Activity for each compound was measured in the p62 degradation assay and the LC3 marker assay as described herein. The activity at each concentration of peptide is given as, for example, (0/+) where 0 would be the p62/actin assay activity and + would be the LC3 assay activity.

LC3 = LC3 marker assay (LC3-I to LC3-II conversion immunoblot);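 for Activity (μM) 10, LC3 assay activity: HeLa cells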;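 for Activity (μM) 100, LC3 assay activity: HeLa cells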;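 for Activity (μM) 20, LC3 assay activity: HeLa cells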;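 for Activity (μM) 30, LC3 assay activity: HeLa cells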;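 for Activity (μM) 50, LC3 assay activity: HeLa cells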; assay type: cell-based; set-up: key: −: activity not reported; 0: decreased vs. WT; +: similar to WT; ++: modest increase vs. WT; +++: significant increase vs. WT; settings: for Activity (μM) 50, LC3 assay activity: 50 μM; for Activity (μM) 100, LC3 assay activity: 100 μM; for Activity (μM) 10, LC3 assay activity: 10 μM; for Activity (μM) 20, LC3 assay activity: 20 μM; for Activity (μM) 30, LC3 assay activity: 30 μM
Experimental: as §1, §2

[1] = Table 8, control compound T25, first symbol
[2] = Table 8, control compound T25, second symbol
[3] = Table 3, control vehicle, first symbol of cell
[4] = Table 3, control vehicle, first symbol
[5] = Table 7, control compound T25, first symbol
[6] = Table 3, control vehicle, second symbol of cell
[7] = Table 3, control vehicle, second symbol
[8] = Table 7, control compound T25, second symbol

“RCNARCRIWR (H-R[dC]NAR[dC]RIWR; not fully specified (C-terminus); cysteine pairing not given here) [Compound 40]” was tested, and the “Activity (μM) 50, p62/actin assay activity” value (p62; [1]) was 0/0, the “Activity (μM) 100, p62/actin assay activity” value (p62; [1]) was 0/0 and the “Activity (μM) 50, LC3 assay activity” value (LC3; [2]) was 0/0. The “Activity (μM) 100, LC3 assay activity” value (LC3; [2]) was 0/0.

In the case of VCNACFHIWH [Compound 4], the “Activity (μM) 10, p62/actin assay activity” value (p62; [3]) is reported as 0/0, the “Activity (μM) 20, p62/actin assay activity” value (p62; [4]) is reported as 0/0 and the “Activity (μM) 30, p62/actin assay activity” value (p62; [5]) is reported as 0/0. For the same sequence, the “Activity (μM) 50, p62/actin assay activity” value (p62; [4]) was 0/0, the “Activity (μM) 50, p62/actin assay activity” value (p62; [5]) was “++/++” and the “Activity (μM) 100, p62/actin assay activity” value (p62; [4]) was “+++”. The “Activity (μM) 100, p62/actin assay activity” value (p62; [5]) was “+++/+++”, the “Activity (μM) 10, LC3 assay activity” value (LC3; [6]) was 0/0 and the “Activity (μM) 20, LC3 assay activity” value (LC3; [7]) was 0/0. The “Activity (μM) 30, LC3 assay activity” value (LC3; [8]) was 0/0, the “Activity (μM) 50, LC3 assay activity” value (LC3; [7]) was 0/0 and the “Activity (μM) 50, LC3 assay activity” value (LC3; [8]) was “++/++”. The “Activity (μM) 100, LC3 assay activity” value (LC3; [7]) was “+” and the “Activity (μM) 100, LC3 assay activity” value (LC3; [8]) was “+++/+++”.

With VCNACFHIWH [Compound 9] the “Activity (μM) 10, p62/actin assay activity” value (p62; [3]) was 0/0, the “Activity (μM) 20, p62/actin assay activity” value (p62; [4]) was 0/0 and the “Activity (μM) 50, p62/actin assay activity” value (p62; [4]) was 0/0. The “Activity (μM) 10, LC3 assay activity” value (LC3; [6]) was 0/0, the “Activity (μM) 20, LC3 assay activity” value (LC3; [7]) was 0/0 and the “Activity (μM) 50, LC3 assay activity” value (LC3; [7]) was 0/0.

For VCNACFHIWH [Compound 10], the “Activity (μM) 10, p62/actin assay activity” value (p62; [3]) was 0, the “Activity (μM) 20, p62/actin assay activity” value (p62; [4]) was 0 and the “Activity (μM) 50, p62/actin assay activity” value (p62; [4]) was 0. The “Activity (μM) 10, LC3 assay activity” value (LC3; [6]) was “+”, the “Activity (μM) 20, LC3 assay activity” value (LC3; [7]) was “++” and the “Activity (μM) 50, LC3 assay activity” value (LC3; [7]) was “+++”.

For VCNACFHIWH [Compound 52], the “Activity (μM) 50, p62/actin assay activity” value (p62; [1]) was 0, the “Activity (μM) 100, p62/actin assay activity” value (p62; [1]) was 0 and the “Activity (μM) 50, LC3 assay activity” value (LC3; [2]) was “+”. The “Activity (μM) 100, LC3 assay activity” value (LC3; [2]) was “+”.

In the case of VCNACFHIWH [Compound 53], the “Activity (μM) 50, p62/actin assay activity” value (p62; [1]) is reported as “+++”, the “Activity (μM) 100, p62/actin assay activity” value (p62; [1]) is reported as “+++” and the “Activity (μM) 50, LC3 assay activity” value (LC3; [2]) is reported as “++”. For the same sequence, the “Activity (μM) 100, LC3 assay activity” value (LC3; [2]) was “++”.

In the case of VCNACFHIWH [Compound 54], the “Activity (μM) 10, p62/actin assay activity” value (p62; [1]) is reported as “+”, the “Activity (μM) 30, p62/actin assay activity” value (p62; [1]) is reported as “++” and the “Activity (μM) 50, p62/actin assay activity” value (p62; [1]) is reported as “++”. The “Activity (μM) 10, LC3 assay activity” value (LC3; [2]) was 0, the “Activity (μM) 30, LC3 assay activity” value (LC3; [2]) was 0 and the “Activity (μM) 50, LC3 assay activity” value (LC3; [2]) was 0.

In the case of VCNACFHIWH [Compound 55], the “Activity (μM) 10, p62/actin assay activity” value (p62; [1]) is reported as 0/0, the “Activity (μM) 30, p62/actin assay activity” value (p62; [1]) is reported as “++” and the “Activity (μM) 50, p62/actin assay activity” value (p62; [1]) is reported as “+++”. The “Activity (μM) 10, LC3 assay activity” value (LC3; [2]) was 0/0, the “Activity (μM) 30, LC3 assay activity” value (LC3; [2]) was 0 and the “Activity (μM) 50, LC3 assay activity” value (LC3; [2]) was 0.

VCNACFHIWH [Compound 56] was tested, and the “Activity (μM) 10, p62/actin assay activity” value (p62; [1]) was 0/0, the “Activity (μM) 30, p62/actin assay activity” value (p62; [1]) was “+” and the “Activity (μM) 50, p62/actin assay activity” value (p62; [1]) was “+”. The “Activity (μM) 10, LC3 assay activity” value (LC3; [2]) was 0/0, the “Activity (μM) 30, LC3 assay activity” value (LC3; [2]) was 0 and the “Activity (μM) 50, LC3 assay activity” value (LC3; [2]) was 0.

In the case of VCNACFHIWH [Compound 57], the “Activity (μM) 10, p62/actin assay activity” value (p62; [1]) is reported as 0/0, the “Activity (μM) 30, p62/actin assay activity” value (p62; [1]) is reported as “+” and the “Activity (μM) 50, p62/actin assay activity” value (p62; [1]) is reported as “+”. For the same sequence, the “Activity (μM) 10, LC3 assay activity” value (LC3; [2]) was 0/0, the “Activity (μM) 30, LC3 assay activity” value (LC3; [2]) was 0 and the “Activity (μM) 50, LC3 assay activity” value (LC3; [2]) was 0.

For VCNACFHIWH [Compound 69], the “Activity (μM) 30, p62/actin assay activity” value (p62; [1]) was 0/0, the “Activity (μM) 50, p62/actin assay activity” value (p62; [1]) was “++” and the “Activity (μM) 10, starred cell, p62/actin assay activity” value (p62; Table 8, 10 μM marked * (footnote: data taken at 20 instead of 30 μM), first symbol) was 0/0*. For the same sequence, the “Activity (μM) 30, LC3 assay activity” value (LC3; [2]) was 0/0, the “Activity (μM) 50, LC3 assay activity” value (LC3; [2]) was “+++” and the “Activity (μM) 10, starred cell, LC3 assay activity” value (LC3; Table 8, 10 μM marked * (footnote: data taken at 20 instead of 30 μM), second symbol) was 0/0*.
